Measured values: patent publication US12458614B2, “Therapeutic agents for improved mobility and cognitive function and for treating neurodegenerative diseases and lysosomal storage disorders” (priority 2017, dated 2025)
“Also recorded” adds a separate entry of the source.

Columns and labels:
[1] = test system: rat model of an acute unilateral labyrinthectomy; conditions: acute unilateral labyrinthectomy (Gunther 2015); cited from earlier work
[2] = test system: patients with amyotrophic lateral sclerosis (ALS); assay: Case studies, amyotrophic lateral sclerosis; format: in vivo, human; conditions: ALS Patient 1
Text: The results were documented by video.

[3] = test system: patients with downbeat nystagmus; assay: Case studies, downbeat nystagmus; format: in vivo, human; conditions: downbeat nystagmus Patients 1 (10 mg twice daily, four weeks) and 2
[4] = test system: patient with Lewy Body dementia; assay: Case study, Lewy Body dementia; format: in vivo, human; conditions: Levodopa 100 mg 4× daily and Quetiapin 25 mg at night
Method: The patient started taking acetyl-leucine (3 g/day for one week; 5 g/day thereafter) and was evaluated after four weeks. […] Medication was reduced to 3 g/day, and the patient was instructed to stop medication about two weeks later.

[5] = test system: patient with corticobasal syndrome; assay: Case study, corticobasal syndrome; format: in vivo, human; conditions: treatment with L-Dopa
Method: Gait analysis was performed before treatment commenced.

[6] = test system: patients with multiple system atrophy Parkinson type (MSA-P); assay: Case studies, multiple system atrophy Parkinson type; format: in vivo, human; conditions: MSA-P Patient 3
Text: Medication was stopped. […] The patient evaluated after one month on acetyl-DL-leucine. […] Episodes of mental confusion completely disappeared. The patient's cognitive structure seemed much clearer and straighter. […] The patient's spouse supported continuing the medication.

[7] = test system: person with balance disorder/senile gait disorder; assay: Case study Example 23; format: in vivo, human; conditions: treatment with L-Dopa
[8] = test system: patient with progressive gait disorder; assay: Case study Example 26, quantitative gait analysis; format: in vivo, human; conditions: treatment with L-Dopa
[9] = test system: patients with multiple system atrophy Parkinson type (MSA-P); assay: Case studies, multiple system atrophy Parkinson type; format: in vivo, human; conditions: MSA-P Patient 1, 100/25 mg 3× daily
[10] = test system: patient with frontotemporal dementia with parkinsonism; assay: Case study, frontotemporal dementia with parkinsonism; format: in vivo, human; conditions: treatment with L-Dopa and Ropinirol
Text: After approximately one month of acetyl-leucine treatment, medication was stopped and the patient was re-examined 13 days later.

[11] = test system: patients with progressive supranuclear palsy; assay: Case studies, progressive supranuclear palsy; format: in vivo, human; conditions: individual PSP patients 1 to 4
Method: After 27 days of acetyl-leucine treatment, medication was stopped and the patient was re-examined 60 days later. […] Gait analysis was performed before treatment commenced. After 17 days of treatment, medication was stopped and the patient was re-examined 4 days later. […] Gait analysis was performed before treatment commenced. After three weeks of treatment, medication was stopped and the patient was re-examined.

CC(=O)N[C@@H](CC(C)C)C(=O)O [acetyl-L-leucine]
postural compensation [1]: significant effect

Nc1nc2ccc(OC(F)(F)F)cc2s1 [Riluzol]
Clinical symptomatology under prior medication [2]: remained unchanged

Nc1ccncc1 [4-aminopyridine]
Benefit of prior medication [3]: did not give rise to any benefit
Benefit of prior medication ([3]; listed as Fampyra®): did not benefit

OCCOCCN1CCN(C2=Nc3ccccc3Sc3ccccc32)CC1 [Quetiapin]
Response to prior medication [4]: improved the symptomatology

N[C@@H](Cc1ccc(O)c(O)c1)C(=O)O [L-Dopa]
Response to prior medication [5]: no improvement
Response to prior medication [4]: improved the symptomatology
Tolerability of Levodopa therapy [6]: suspended due to side effects
Response to prior medication [7]: no improvement
Response to prior medication [8]: No improvement
Levodopa response [9]: discreet Levodopa response
Response to prior medication [10]: little improvement
Levodopa response [11]: little improvement
Levodopa response ([11]; listed as levodopa): no levodopa response; also recorded: slight levodopa response

CCCN(CCC)CCc1cccc2c1CC(=O)N2 [Ropinirol]
Response to prior medication [10]: little improvement
